Literature values in patent US20070178051A1, “STERILIZED NANOPARTICULATE GLUCOCORTICOSTEROID FORMULATIONS” (Elan Pharma International, Ltd., priority 2006, published 2007).

SMILES	solubility in chloroform (chloroform)	solubility in ethanol (ethanol)	solubility in heptane (heptane)	solubility in water
CCCC1O[C@@H]2C[C@H]3C4CCC5=CC(=O)C=CC5(C)[C@H]4[C@@H](O)CC3(C)C2(C(=O)CO)O1 (mixture of isomers) [Budesonide, (RS)-11,16,17,21-Tetrahydroxy-pregna-1,4-diene-3,20-dione cyclic 16,17-acetal with butraldehyde]	freely soluble	sparingly soluble	practically insoluble	practically insoluble
CCC(=O)O[C@]1(C(=O)SCF)[C@H](C)C[C@H]2[C@@H]3C[C@H](F)C4=CC(=O)C=C[C@]4(C)[C@@]3(F)[C@@H](O)C[C@@]21C [Fluticasone propionate, S-(fluoromethyl) 6a,9-difluoro-11b, 17-dihydroxy-16a-methyl-3-oxoandrosta-1,4-diene-17b-carbothioate, 17-propionate]	–	–	–	practically insoluble
